Where two headings read alike, the source gives them in different places. Square brackets hold non-standard residues; d marks the D form. Ends that are not written are not given here. Peptide text beside a SMILES is read from it. Phe(4-NO2) = N[C@@H](Cc1ccc([N+](=O)[O-])cc1)C(=O)O; Phe(4-Cl) = N[C@@H](Cc1ccc(Cl)cc1)C(=O)O; Phe(4-F) = N[C@@H](Cc1ccc(F)cc1)C(=O)O; NMeR = CN[C@@H](CCCNC(=N)N)C(=O)O; Aoc = NCCCCCCCC(=O)O; Sar = CNCC(=O)O
Legend:
[1] = target: Delta opioid receptor (DOR) (Homo sapiens, UniProt P41143); assay: cell-based; format: cell-based
[2] = target: Mu opioid receptor (MOR) (Homo sapiens, UniProt P35372); assay: cell-based; format: cell-based
[3] = target: Kappa opioid receptor (KOR) (Homo sapiens, UniProt P41145); assay: cell-based; format: cell-based; conditions: for EC50: read-out: Activity (EC50, nM) KOR
[4] = Stability in rat plasma; format: in vitro ADME; conditions: 37° C., 100 μM peptide; for half-life at 100 µM: both sexes, Wistar
Description: Stability in plasma was assessed in rat plasma. Plasma was collected in-house from adult mixed-gender Wistar rats, prepared using 2% EDTA as per standard practice. Peptides were added to the rat plasma samples at 37° C. in a water bath with final concentrations of 100 μM (1:9 peptide in water:plasma). The assay was then carried out in the same manner as the assay in bovine trypsin.

[5] = target: T1, bovine pancreatic trypsin (Bos taurus, UniProt P00760); assay: Stability in bovine trypsin; format: in vitro ADME; conditions: bovine pancreatic trypsin 2.5 μg/mL, NH4HCO3 buffer pH 8-8.5, 37° C., 100 μM peptide; for half-life: isolated enzyme trypsin; for half-life at 100 µM: bovine pancreatic trypsin solution
T1 construct: from tissue; host or cells: bovine pancreas
T1 sequence (P00760 24-246): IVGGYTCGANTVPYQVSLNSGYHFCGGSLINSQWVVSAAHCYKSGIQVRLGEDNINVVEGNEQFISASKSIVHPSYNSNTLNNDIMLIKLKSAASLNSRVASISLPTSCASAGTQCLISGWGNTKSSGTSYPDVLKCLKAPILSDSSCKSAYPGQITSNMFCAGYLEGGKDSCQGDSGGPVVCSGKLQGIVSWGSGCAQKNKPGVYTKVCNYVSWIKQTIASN
Description: The stability of the peptides was analysed in typsin, plasma and water. Stability of linear peptides is generally low due to rapid degradation by endogenous peptidases and proteases. While stability in bodily fluids is important, absolute stability may not be prudent or desirable due to potential build-up in vivo leading to adverse side effects, and/or hazards to the environment and recirculation of exceptionally stable compounds in waterways. Thus, compounds that are extremely stable in either plasma or typsin are not generally considered “drug-like”.
Stability in bovine trypsin was analysed for SEQ ID Nos. 2 to 7 and 11 to 17. Peptides were added to trypsin solution (bovine pancreatic trypsin 2.5 μg/mL in NH4HCO3 buffer, pH approximately 8-8.5, 37° C.) in a water bath with final concentrations of 100 μM peptide. A 50 μL sample was taken immediately and precipitated in 150 μL of cold acetonitrile (9:1 acetonitrile:water) This sample became the baseline, or t=0 min sample. The trypsin peptide mixture was immediately returned to the water bath and subsequent 50 μL samples were taken at 5, 10, 15, 30, 60 and 120 min. At each time point, the 50 μL sample was collected and immediately added to cold acetonitrile (ACN). Each sample was vortexed for 30 sec and then centrifuged at room temperature (RT) (13K rpm, 5 min). 150 μL of the supernatant was taken and directly place in a glass HPLC vial for LCMS analysis.

[6] = target: KOPr (Homo sapiens, UniProt P41145); format: cell-based
[7] = target: KOR (Homo sapiens, UniProt P41145); assay: cell-based; format: cell-based
[8] = read-out: Activity (EC50, nM) MOR
[9] = read-out: Activity (EC50, nM) DOR

Sequence of Kappa opioid receptor (KOR) (P41145 whole entry): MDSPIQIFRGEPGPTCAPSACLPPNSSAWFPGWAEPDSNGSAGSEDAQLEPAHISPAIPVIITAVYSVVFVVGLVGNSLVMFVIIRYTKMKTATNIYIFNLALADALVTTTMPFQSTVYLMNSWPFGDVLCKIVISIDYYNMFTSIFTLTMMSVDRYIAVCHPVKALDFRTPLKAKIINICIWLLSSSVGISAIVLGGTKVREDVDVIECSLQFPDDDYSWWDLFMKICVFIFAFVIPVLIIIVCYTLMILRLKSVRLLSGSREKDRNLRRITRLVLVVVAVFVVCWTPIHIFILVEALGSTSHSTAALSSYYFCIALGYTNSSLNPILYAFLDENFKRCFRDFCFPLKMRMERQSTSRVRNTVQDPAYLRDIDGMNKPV
Sequence of Mu opioid receptor (MOR) (P35372 whole entry): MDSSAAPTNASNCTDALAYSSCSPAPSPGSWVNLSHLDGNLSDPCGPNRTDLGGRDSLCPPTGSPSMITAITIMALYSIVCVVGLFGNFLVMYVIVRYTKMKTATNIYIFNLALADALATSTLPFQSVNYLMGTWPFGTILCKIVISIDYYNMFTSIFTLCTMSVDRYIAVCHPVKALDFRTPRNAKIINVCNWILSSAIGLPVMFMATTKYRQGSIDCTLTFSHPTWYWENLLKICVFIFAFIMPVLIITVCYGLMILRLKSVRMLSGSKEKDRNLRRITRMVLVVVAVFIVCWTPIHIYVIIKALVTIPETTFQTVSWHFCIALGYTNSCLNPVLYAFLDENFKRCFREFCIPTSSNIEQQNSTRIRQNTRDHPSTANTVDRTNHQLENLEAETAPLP
Sequence of Delta opioid receptor (DOR) (P41143 whole entry): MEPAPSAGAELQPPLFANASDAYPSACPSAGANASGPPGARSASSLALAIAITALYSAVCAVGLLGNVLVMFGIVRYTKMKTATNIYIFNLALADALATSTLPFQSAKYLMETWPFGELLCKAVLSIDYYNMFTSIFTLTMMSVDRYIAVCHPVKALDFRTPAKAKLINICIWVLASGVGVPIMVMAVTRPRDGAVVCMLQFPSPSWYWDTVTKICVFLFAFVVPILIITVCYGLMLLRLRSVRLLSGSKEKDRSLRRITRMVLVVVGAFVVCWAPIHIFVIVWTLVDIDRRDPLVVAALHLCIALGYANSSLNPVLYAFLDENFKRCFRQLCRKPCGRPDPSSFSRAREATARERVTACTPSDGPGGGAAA
Sequence of KOPr (P41145 whole entry): as the sequence (P41145 whole entry) above
Sequence of KOR (P41145 whole entry): as above

| Compound | cAMP assay DOR 1 μM [1] | cAMP assay MOR 1 μM [2] | cAMP assay KOR 1 μM [3] | half-life at 100 µM [4] | cAMP assay DOR 10 μM [1] | cAMP assay MOR 10 μM [2] | cAMP assay KOR 10 μM [3] | half-life at 100 µM [5] | further results |
| --- | --- | --- | --- | --- | --- | --- | --- | --- | --- |
| 2-NH2-Phe-Phe-Leu-Gly-Arg-Arg (FFLGRR; also: 2-NH2 (N-terminal amino modification) on Phe, placement unclear) [SEQ ID NO. 36, reference compound] | no measurable potency | no measurable potency | no measurable potency |  |  |  |  |  |  |
| CC(C)C[C@H](NC(=O)[C@H](Cc1ccccc1)NC(=O)CN(C)C(=O)[C@@H](N)Cc1ccc(O)cc1)C(=O)N[C@@H](CCCNC(=N)N)C(=O)N[C@H](CCCNC(=N)N)C(N)=O [SEQ ID NO. 3, NH2-Tyr-Sar-Phe-Leu-Arg-DArg-NH2] (H-Y[Sar]FLR[dR]-NH2) | −2.27 | −0.68 | 27.24 | 1.2 h | 2.24 | 2.17 | 43.58 |  | Half Life Trypsin [5]: 0.227 h |
| CC(C)C[C@H](NC(=O)[C@H](Cc1ccc([N+](=O)[O-])cc1)NC(=O)CN(C)C(=O)[C@@H](N)Cc1ccc(O)cc1)C(=O)N[C@H](CCCNC(=N)N)C(=O)N[C@@H](CCCNC(=N)N)C(N)=O [SEQ ID NO. 5, NH2-Tyr-Sar-(4-NO2)Phe-Leu-DArg-Arg-NH2] (H-Y[Sar][Phe(4-NO2)]L[dR]R-NH2) | 0.05 | −0.05 | 33.44 |  | 2.02 | 4.32 | 43.14 |  | half-life [4]: 0.478 h; Half Life Trypsin [5]: 54.167 h |
| CC(C)C[C@H](NC(=O)[C@H](Cc1ccccc1)NC(=O)CN(C)C(=O)[C@@H](N)Cc1ccc(O)cc1)C(=O)N[C@H](CCCNC(=N)N)C(=O)N[C@@H](CCCNC(=N)N)C(N)=O [SEQ ID NO. 6, NH2-Tyr-Sar-Phe-Leu-DArg-Arg-NH2] (H-Y[Sar]FL[dR]R-NH2) | −0.03 | 1.04 | 14.22 |  | 2.25 | 7.84 | 35.13 |  | half-life [5]: 21.1 h |
| CC(C)C[C@H](NC(=O)[C@H](Cc1ccccc1)NC(=O)CN(C)C(=O)[C@@H](N)Cc1ccc(O)cc1)C(=O)N[C@H](CCCNC(=N)N)C(=O)N[C@H](CCCNC(=N)N)C(N)=O [SEQ ID NO. 7, NH2-Tyr-Sar-Phe-Leu-DArg-DArg-NH2] (H-Y[Sar]FL[dR][dR]-NH2) | −0.68 | 0.13 | 18.27 |  | 2.53 | 4.19 | 36.03 |  | half-life [5]: 9.78 h |
| CC(C)C[C@H](NC(=O)[C@H](Cc1ccc(Cl)cc1)NC(=O)CN(C)C(=O)[C@@H](N)Cc1ccc(O)cc1)C(=O)N[C@@H](CCCNC(=N)N)C(=O)N[C@H](CCCNC(=N)N)C(N)=O [SEQ ID NO. 11, NH2-Tyr-Sar-(4-Cl)Phe-Leu-Arg-DArg-NH2] (H-Y[Sar][Phe(4-Cl)]LR[dR]-NH2) | −1.18 | −0.86 | 27.7 |  | 4.27 | 1.37 | 33.99 | 0.257 h |  |
| CC(C)C[C@H](NC(=O)[C@H](Cc1ccc(F)cc1)NC(=O)CN(C)C(=O)[C@@H](N)Cc1ccc(O)cc1)C(=O)N[C@@H](CCCNC(=N)N)C(=O)N[C@H](CCCNC(=N)N)C(N)=O [SEQ ID NO. 12, NH2-Tyr-Sar-(4-F)Phe-Leu-Arg-DArg-NH2] (H-Y[Sar][Phe(4-F)]LR[dR]-NH2) |  |  |  | 0.532 h |  |  |  | 0.228 h | EC50 [2, 8]: 3450 nM; EC50 [3]: 6.7 nM |
| CC(C)C[C@H](NC(=O)[C@H](Cc1ccc(Cl)cc1)NC(=O)CN(C)C(=O)[C@@H](N)Cc1ccc(O)cc1)C(=O)N(C)[C@@H](CCCNC(=N)N)C(=O)N[C@H](CCCNC(=N)N)C(N)=O [SEQ ID NO. 13, NH2-Tyr-Sar-(4-Cl)Phe-Leu-NMA-DArg-NH2] (H-Y[Sar][Phe(4-Cl)]L[NMeR][dR]-NH2) |  |  |  | 3.99 h |  |  |  | 4.6 h | EC50 [1]: > 10000 nM; EC50 [2]: > 10000 nM |
| CC(C)C[C@H](NC(=O)[C@H](Cc1ccc(F)cc1)NC(=O)CN(C)C(=O)[C@@H](N)Cc1ccc(O)cc1)C(=O)N(C)[C@@H](CCCNC(=N)N)C(=O)N[C@H](CCCNC(=N)N)C(N)=O [SEQ ID NO. 14, NH2-Tyr-Sar-(4-F)Phe-Leu-NMA-DArg-NH2] (H-Y[Sar][Phe(4-F)]L[NMeR][dR]-NH2) |  |  |  | 5.4 h |  |  |  | 27.1 h | EC50 [1, 9]: 1660 nM; EC50 [2, 8]: 4000 nM |
| CC(C)C[C@H](NC(=O)[C@H](Cc1ccc([N+](=O)[O-])cc1)NC(=O)CN(C)C(=O)[C@@H](N)Cc1ccc(O)cc1)C(=O)N(C)[C@@H](CCCNC(=N)N)C(=O)N[C@H](CCCNC(=N)N)C(N)=O [SEQ ID NO. 15, NH2-Tyr-Sar-(4-NO2)Phe-Leu-NMA-DArg-NH2] (H-Y[Sar][Phe(4-NO2)]L[NMeR][dR]-NH2) |  |  |  |  |  |  |  |  | EC50 [1, 9]: 1320 nM |
| CC(C)C[C@H](NC(=O)[C@H](Cc1ccc(Cl)cc1)NC(=O)CN(C)C(=O)[C@@H](N)Cc1ccc(O)cc1)C(=O)N[C@@H](CCCCN)C(=O)N[C@H](CCCNC(=N)N)C(N)=O [SEQ ID NO. 16, NH2-Tyr-Sar-(4-Cl)Phe-Leu-Lys-DArg-NH2] (H-Y[Sar][Phe(4-Cl)]LK[dR]-NH2) |  |  |  | 1.17 h |  |  |  |  | Half Life Trypsin [5]: 1.16 h |
| CC(C)C[C@H](NC(=O)[C@H](Cc1ccc(Cl)cc1)NC(=O)CN(C)C(=O)[C@@H](N)Cc1ccc(O)cc1)C(=O)N[C@@H](CCCNC(=N)N)C(=O)N(C)[C@@H](CCCNC(=N)N)C(N)=O [SEQ ID NO. 17, NH2-Tyr-Sar-(4-Cl)Phe-Leu-Arg-NMA-NH2] (H-Y[Sar][Phe(4-Cl)]LR[NMeR]-NH2) |  |  |  | 2.9 h |  |  |  | > 16.7 h |  |
| CC(C)C[C@H](NC(=O)[C@H](Cc1ccc([N+](=O)[O-])cc1)NC(=O)CN(C)C(=O)[C@@H](N)Cc1ccc(O)cc1)C(=O)N[C@@H](CCCNC(=N)N)C(=O)N(C)[C@@H](CCCNC(=N)N)C(N)=O [SEQ ID NO. 18, NH2-Tyr-Sar-(4-NO2)Phe-Leu-Arg-NMA-NH2] (H-Y[Sar][Phe(4-NO2)]LR[NMeR]-NH2) |  |  |  |  |  |  |  |  | bias factor (β) relative to U50488H [6]: bias towards cAMP; pERK1/2 activity [6]: failed to show any pERK activity; KOR desensitisation (change of cAMP maximal response after pre-treatment) [7]: no sign of desensitisation; EC50 [3]: 1.77 nM |
| CC[C@H](C)[C@H](NC(=O)[C@@H](CCCNC(=N)N)NC(=O)[C@H](CCCNC(=N)N)NC(=O)[C@H](CC(C)C)NC(=O)[C@H](Cc1ccc(Cl)cc1)NC(=O)CN(C)C(=O)[C@@H](N)Cc1ccc(O)cc1)C(=O)N[C@@H](CCCNC(=N)N)C(N)=O [SEQ ID NO. 20, NH2-Tyr-Sar-(4-Cl)Phe-Leu-Arg-DArg-Ile-Arg-NH2] |  |  |  |  |  |  |  |  | EC50 [1]: 3580 nM; EC50 [2]: > 10000 nM; reduction in maximal response after pre-treatment ([7]; read-out: reduction in maximal response): ~50%; cAMP activity in the presence of naloxone, KOR cells [3]: significantly inhibited |
| CC[C@H](C)[C@H](NC(=O)[C@@H](CCCNC(=N)N)NC(=O)[C@H](CCCNC(=N)N)NC(=O)[C@H](CC(C)C)NC(=O)[C@H](Cc1ccc(Cl)cc1)NC(=O)CN(C)C(=O)[C@@H](N)Cc1ccc(O)cc1)C(=O)N[C@H](CCCNC(=N)N)C(N)=O [SEQ ID NO. 25, NH2-Tyr-Sar-(4-Cl)Phe-Leu-Arg-DArg-Ile-DArg-NH2] |  |  |  |  |  |  |  |  | EC50 [1]: > 10000 nM; EC50 [2]: 1610 nM |
| CC(C)C[C@H](NC(=O)[C@H](Cc1ccc(Cl)cc1)NC(=O)CN(C)C(=O)[C@@H](N)Cc1ccc(O)cc1)C(=O)N[C@@H](CCCNC(=N)N)C(=O)N[C@H](CCCNC(=N)N)C(=O)NCCCCCCCC(=O)O [SEQ ID NO. 28, NH2-Tyr-Sar-(4-Cl)Phe-Leu-Arg-DArg-C7H14-COOH] (H-Y[Sar][Phe(4-Cl)]LR[dR][Aoc]-OH) |  |  |  |  |  |  |  |  | EC50 [1]: > 10000 nM; EC50 [2]: > 10000 nM |

— patent publication US20240301023A1 (priority 2020, published 2024)
